Reference: ChEMBL document CHEMBL4382229, “Benzofuran derivatives and their anti-tubercular, anti-bacterial activities” (Eur J Med Chem, 2019)
Values after ≈ are worked out from the molar mass of the structure shown.

Key:
Proteus vulgaris [1] = assay: Antibacterial activity against Proteus vulgaris after 24 hrs; assay type: functional
Proteus vulgaris [2] = assay: Potency index, ratio of norfloxacin MIC to test compound MIC for Proteus vulgaris; assay type: functional
Escherichia coli [3] = assay: Antibacterial activity against Escherichia coli assessed as zone of inhibition at 50 ug/ml after 3 days by filter paper disc method; assay type: functional; conditions: 72 h, read-out: IZ
Staphylococcus aureus [4] = assay: Antibacterial activity against Staphylococcus aureus assessed as zone of inhibition at 50 ug/ml after 3 days by filter paper disc method; assay type: functional; conditions: 72 h, read-out: IZ
Bacillus subtilis [5] = assay: Antibacterial activity against Bacillus subtilis assessed as zone of inhibition at 50 ug/ml after 3 days by filter paper disc method; assay type: functional; conditions: 72 h, read-out: IZ
Pseudomonas aeruginosa [6] = assay: Antibacterial activity against Pseudomonas aeruginosa assessed as zone of inhibition at 50 ug/ml after 3 days by filter paper disc method; assay type: functional; conditions: 72 h, read-out: IZ
Pseudomonas aeruginosa [7] = assay: Antibacterial activity against Pseudomonas aeruginosa MTCC 424 assessed as zone of inhibition at 25 ug/ml by agar well diffusion method; assay type: functional; conditions: read-out: IZ
Streptococcus pyogenes [8] = assay: Antibacterial activity against Streptococcus pyogenes MTCC 442 assessed as zone of inhibition at 25 ug/ml by agar well diffusion method; assay type: functional; conditions: read-out: IZ
Staphylococcus aureus [9] = assay: Antibacterial activity against Staphylococcus aureus MTCC 96 assessed as zone of inhibition at 25 ug/ml by agar well diffusion method; assay type: functional; conditions: read-out: IZ
Escherichia coli [10] = assay: Antibacterial activity against Escherichia coli MTCC 443 assessed as zone of inhibition at 25 ug/ml by agar well diffusion method; assay type: functional; conditions: read-out: IZ
Bacillus spizizenii = assay: Antibacterial activity against Bacillus subtilis ATCC 6633 after 24 hrs by broth dilution method; assay type: functional; conditions: ATCC 6633, 24 h
Staphylococcus aureus [11] = assay: Antibacterial activity against Staphylococcus aureus ATCC 29213 after 24 hrs by broth dilution method; assay type: functional; conditions: ATCC 29213, 24 h
Escherichia coli [12] = assay: Antibacterial activity against Escherichia coli ATCC 11229 after 24 hrs by broth dilution method; assay type: functional; conditions: ATCC 11229, 24 h
Proteus vulgaris [13] = assay: Antibacterial activity against Proteus vulgaris […] after 24 hrs by broth dilution method; assay type: functional
[14] = molecular target: DNA gyrase subunit A/DNA gyrase subunit B (Mycobacterium tuberculosis (strain ATCC 25618 / H37Rv), UniProt P9WG45+P9WG47); assay: Inhibition of Mycobacterium tuberculosis H37Rv DNA gyrase A/B expressed in Escherichia coli assessed as reduction in supercoiling of relaxed pBR322 DNA substrate measured after 60 mins by ethidium bromide staining based agarose gel electrophoresis method
Pseudomonas aeruginosa [15] = assay: Antibacterial activity against Pseudomonas aeruginosa MTCC 424 assessed as zone of inhibition at 100 ug/ml by disc diffusion method; assay type: functional; conditions: read-out: IZ
Streptococcus pyogenes [16] = assay: Antibacterial activity against Streptococcus pyogenes MTCC 442 assessed as zone of inhibition at 100 ug/ml by disc diffusion method; assay type: functional; conditions: read-out: IZ
Staphylococcus aureus [17] = assay: Antibacterial activity against Staphylococcus aureus MTCC 96 assessed as zone of inhibition at 100 ug/ml by disc diffusion method; assay type: functional; conditions: read-out: IZ
[18] = tested on: Mycobacterium tuberculosis; assay: Antimycobacterial activity against Mycobacterium tuberculosis H37Rv ATCC 27294 after 5 days by microplate alamar blue assay; assay type: functional; conditions: H37Rv ATCC 27294, 120 h
Pseudomonas aeruginosa [19] = assay: Antibacterial activity against Pseudomonas aeruginosa by broth dilution method; assay type: functional
Escherichia coli [20] = assay: Antibacterial activity against Escherichia coli MTCC 443 assessed as zone of inhibition at 100 ug/ml by disc diffusion method; assay type: functional; conditions: read-out: IZ
Pseudomonas aeruginosa [21] = assay: Antibacterial activity against Pseudomonas aeruginosa MTCC 1034 after 24 hrs by broth dilution method; assay type: functional; conditions: MTCC 1034, 24 h
Escherichia coli [22] = assay: Antibacterial activity against Escherichia coli MTCC 1559 after 24 hrs by broth dilution method; assay type: functional; conditions: MTCC 1559, 24 h
Bacillus subtilis [23] = assay: Antibacterial activity against Bacillus subtilis MTCC 1134 after 24 hrs by broth dilution method; assay type: functional; conditions: MTCC 1134, 24 h
Staphylococcus aureus [24] = assay: Antibacterial activity against Staphylococcus aureus assessed as diameter of inhibition zone at 250 ug/ml after 24 hrs by disc diffusion method; assay type: functional; conditions: read-out: DIZ
Escherichia coli [25] = assay: Antibacterial activity against Escherichia coli assessed as diameter of inhibition zone at 250 ug/ml after 24 hrs by disc diffusion method; assay type: functional; conditions: read-out: DIZ
Staphylococcus aureus [26] = assay: Antibacterial activity against Staphylococcus aureus ATCC 6538 after 24 hrs by broth dilution method; assay type: functional; conditions: ATCC 6538, 24 h

O=C1Nc2c(cccc2[N+](=O)[O-])/C1=N/NC(=O)c1cc2ccccc2o1
MIC (Proteus vulgaris [1]): 31.2 µg/mL (≈ 89.2 µM)
Ratio (Proteus vulgaris [2]): 2

O=C1/C(=C\c2cn(-c3ccccc3)nc2-c2cccs2)Oc2cc(Cl)ccc21
zone of inhibition at 50 µg/mL (Escherichia coli [3]): 13 to 33 mm
zone of inhibition at 50 µg/mL (Staphylococcus aureus [4]): 13 to 33 mm
zone of inhibition at 50 µg/mL (Bacillus subtilis [5]): 13 to 33 mm
zone of inhibition at 50 µg/mL (Pseudomonas aeruginosa [6]): 13 to 33 mm

COc1cc(OC)c(-c2cc3cc(C(=O)/C=C/c4ccc5occc5c4)cc(OC)c3o2)c(OC)c1
zone of inhibition at 25 µg/mL (Pseudomonas aeruginosa [7]): 21 to 28 mm
zone of inhibition at 25 µg/mL (Streptococcus pyogenes [8]): 21 to 28 mm
zone of inhibition at 25 µg/mL (Staphylococcus aureus [9]): 21 to 28 mm
zone of inhibition at 25 µg/mL (Escherichia coli [10]): 21 to 28 mm

COc1ccc(-c2nn(-c3ccccc3)cc2/C=C/c2oc3c4c(ccc3c2C(=O)c2ccc(Br)cc2)OCC=C4)cc1OC
MIC (Bacillus spizizenii): 1.6 to 3.1 µg/mL (≈ 2.43 to 4.7 µM)
MIC (Staphylococcus aureus [11]): 1.6 to 3.1 µg/mL (≈ 2.43 to 4.7 µM)
MIC (Escherichia coli [12]): 1.6 to 3.1 µg/mL (≈ 2.43 to 4.7 µM)
MIC (Proteus vulgaris [13]): 1.6 to 3.1 µg/mL (≈ 2.43 to 4.7 µM)

O=C1Nc2ccc(Cl)cc2/C1=N/NC(=O)c1cc2ccccc2o1
IC50 [14]: 50 to 200 µM

O=C1Nc2c(O)cccc2/C1=N/NC(=O)c1cc2ccccc2o1
MIC (Proteus vulgaris [1]): 31.2 µg/mL (≈ 97.3 µM)
Ratio (Proteus vulgaris [2]): 2

O=C(O)c1cn(C2CC2)c2cc(N3CCNCC3)c(F)cc2c1=O [CIPROFLOXACIN]
zone of inhibition at 50 µg/mL (Escherichia coli [3]): 25 to 28 mm
zone of inhibition at 100 µg/mL (Pseudomonas aeruginosa [15]): 21 to 28 mm
zone of inhibition at 100 µg/mL (Streptococcus pyogenes [16]): 21 to 28 mm
zone of inhibition at 100 µg/mL (Staphylococcus aureus [17]): 21 to 28 mm
MIC [18]: 3.12 µg/mL (≈ 9.43 µM)
MIC (Pseudomonas aeruginosa [19]): < 4 µg/mL
zone of inhibition at 100 µg/mL (Escherichia coli [20]): 21 to 28 mm
zone of inhibition at 50 µg/mL (Pseudomonas aeruginosa [6]): 25 to 28 mm

CN[C@@H]1[C@H](O[C@H]2[C@H](O[C@H]3[C@H](O)[C@@H](O)[C@H](N=C(N)N)[C@@H](O)[C@@H]3N=C(N)N)O[C@@H](C)[C@]2(O)C=O)O[C@@H](CO)[C@H](O)[C@H]1O [STREPTOMYCIN]
MIC (Pseudomonas aeruginosa [21]): 17.2 to 19.4 µg/mL (≈ 29.7 to 33.3 µM)
MIC (Escherichia coli [22]): 17.2 to 19.4 µg/mL (≈ 29.7 to 33.3 µM)
MIC (Bacillus subtilis [23]): 17.2 to 19.4 µg/mL (≈ 29.7 to 33.3 µM)
MIC [18]: 6.25 µg/mL (≈ 10.7 µM)

CCn1cc(C(=O)O)c(=O)c2cc(F)c(N3CCNCC3)cc21 [NORFLOXACIN]
zone of inhibition at 25 µg/mL (Pseudomonas aeruginosa [7]): 19 to 25 mm
zone of inhibition at 25 µg/mL (Streptococcus pyogenes [8]): 19 to 25 mm
zone of inhibition at 25 µg/mL (Staphylococcus aureus [9]): 19 to 25 mm
MIC (Proteus vulgaris [1]): 62.5 µg/mL (≈ 196 µM)
zone of inhibition at 25 µg/mL (Escherichia coli [10]): 19 to 25 mm

COc1cc(OC)c(-c2cc3cc(C(=O)NN)cc(OC)c3o2)c(OC)c1
zone of inhibition at 25 µg/mL (Pseudomonas aeruginosa [7]): 21 to 27 mm
zone of inhibition at 25 µg/mL (Streptococcus pyogenes [8]): 21 to 27 mm
zone of inhibition at 25 µg/mL (Staphylococcus aureus [9]): 21 to 27 mm
zone of inhibition at 25 µg/mL (Escherichia coli [10]): 21 to 27 mm

Cc1ccc(Oc2nc3ccc(C)cc3cc2C2SCC(=O)N2NC(=O)c2cc(-c3cc4ccccc4o3)n(-c3ccccc3)n2)cc1 (stereo not given)
zone of inhibition at 250 µg/mL (Staphylococcus aureus [24]): 12 to 14 mm
zone of inhibition at 250 µg/mL (Escherichia coli [25]): 12 to 14 mm

O=C(c1ccc(Br)cc1)c1oc2ccc(Br)cc2c1/C=C/c1c[nH]c2ccccc12
MIC (Bacillus spizizenii): 3.12 to 6.25 µg/mL (≈ 6 to 12 µM)
MIC (Staphylococcus aureus [26]): 3.12 to 6.25 µg/mL (≈ 6 to 12 µM)
MIC (Escherichia coli [12]): 3.12 to 6.25 µg/mL (≈ 6 to 12 µM)
MIC (Proteus vulgaris [13]): 3.12 to 6.25 µg/mL (≈ 6 to 12 µM)

O=C1Nc2ccc([N+](=O)[O-])cc2/C1=N/NC(=O)c1cc2ccccc2o1
IC50 [14]: 50 to 200 µM

Cc1cc(NC(=O)c2ccccc2)c2oc(COC(=O)NCc3ccccc3)cc2c1
zone of inhibition at 100 µg/mL (Pseudomonas aeruginosa [15]): 11 to 28 mm
zone of inhibition at 100 µg/mL (Streptococcus pyogenes [16]): 11 to 28 mm
zone of inhibition at 100 µg/mL (Staphylococcus aureus [17]): 11 to 28 mm
zone of inhibition at 100 µg/mL (Escherichia coli [20]): 11 to 28 mm

Cc1ccc(S(=O)(=O)Nc2cc(C)cc3cc(COC(=O)NCc4ccccc4)oc23)cc1
zone of inhibition at 100 µg/mL (Pseudomonas aeruginosa [15]): 11 to 28 mm
zone of inhibition at 100 µg/mL (Streptococcus pyogenes [16]): 11 to 28 mm
zone of inhibition at 100 µg/mL (Staphylococcus aureus [17]): 11 to 28 mm
zone of inhibition at 100 µg/mL (Escherichia coli [20]): 11 to 28 mm

Cc1ccc(Oc2nc3ccc(C)cc3cc2/C=N\NC(=O)c2cc(-c3cc4ccccc4o3)n(-c3ccccc3)n2)cc1
zone of inhibition at 250 µg/mL (Staphylococcus aureus [24]): 12 to 14 mm
zone of inhibition at 250 µg/mL (Escherichia coli [25]): 12 to 14 mm
